Reference: the supplement of paper PMC11451515

Tested on: NOMO1
Assay: cell viability relative to DMSO control; higher = less cytotoxic
Conditions: 48 h
Method in brief: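 Before seeding, each leukemia line was adapted for at least four passages in each medium. NOMO1 or SEM cells (500 cells/well) and P12-Ichikawa cells (1000 cells/well) went into 1536-well plates at 5 μl, then received library compounds in DMSO by pin dosing across 11 threefold concentrations, 47 μM to 0.79 nM. Readout was CellTiter-Glo One luminescence after 48 h at 37°C, and viability is given as a per-plate percentage of DMSO wells, with cell-free wells as background.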

[1] = HPLM + 10% dialyzed FBS, 0.000781 µM
[2] = HPLM + 10% dialyzed FBS, 0.00234 µM
[3] = HPLM + 10% dialyzed FBS, 0.00702 µM
[4] = HPLM + 10% dialyzed FBS, 0.0211 µM
[5] = HPLM + 10% dialyzed FBS, 0.0632 µM
[6] = HPLM + 10% dialyzed FBS, 0.19 µM
[7] = HPLM + 10% dialyzed FBS, 0.569 µM
[8] = HPLM + 10% dialyzed FBS, 1.71 µM
[9] = HPLM + 10% dialyzed FBS, 5.12 µM
[10] = HPLM + 10% dialyzed FBS, 15.4 µM
[11] = HPLM + 10% dialyzed FBS, 46.1 µM
[12] = RPMI 5 mM glucose + 10% FBS, 0.000781 µM
[13] = RPMI 5 mM glucose + 10% FBS, 0.00234 µM
[14] = RPMI 5 mM glucose + 10% FBS, 0.00702 µM
[15] = RPMI 5 mM glucose + 10% FBS, 0.0211 µM
[16] = RPMI 5 mM glucose + 10% FBS, 0.0632 µM
[17] = RPMI 5 mM glucose + 10% FBS, 0.19 µM
[18] = RPMI 5 mM glucose + 10% FBS, 0.569 µM
[19] = RPMI 5 mM glucose + 10% FBS, 1.71 µM
[20] = RPMI 5 mM glucose + 10% FBS, 5.12 µM
[21] = RPMI 5 mM glucose + 10% FBS, 15.4 µM
[22] = RPMI 5 mM glucose + 10% FBS, 46.1 µM
[23] = RPMI 5 mM glucose + 10% dialyzed FBS, 0.000781 µM
[24] = RPMI 5 mM glucose + 10% dialyzed FBS, 0.00234 µM
[25] = RPMI 5 mM glucose + 10% dialyzed FBS, 0.00702 µM
[26] = RPMI 5 mM glucose + 10% dialyzed FBS, 0.0211 µM
[27] = RPMI 5 mM glucose + 10% dialyzed FBS, 0.0632 µM
[28] = RPMI 5 mM glucose + 10% dialyzed FBS, 0.19 µM
[29] = RPMI 5 mM glucose + 10% dialyzed FBS, 0.569 µM
[30] = RPMI 5 mM glucose + 10% dialyzed FBS, 1.71 µM
[31] = RPMI 5 mM glucose + 10% dialyzed FBS, 5.12 µM
[32] = RPMI 5 mM glucose + 10% dialyzed FBS, 15.4 µM
[33] = RPMI 5 mM glucose + 10% dialyzed FBS, 46.1 µM

SMILES	cell viability [1] [%]	cell viability [2] [%]	cell viability [3] [%]	cell viability [4] [%]	cell viability [5] [%]	cell viability [6] [%]	cell viability [7] [%]	cell viability [8] [%]	cell viability [9] [%]	cell viability [10] [%]	cell viability [11] [%]	cell viability [12] [%]	cell viability [13] [%]	cell viability [14] [%]	cell viability [15] [%]	cell viability [16] [%]	cell viability [17] [%]	cell viability [18] [%]	cell viability [19] [%]	cell viability [20] [%]	cell viability [21] [%]	cell viability [22] [%]	cell viability [23] [%]	cell viability [24] [%]	cell viability [25] [%]	cell viability [26] [%]	cell viability [27] [%]	cell viability [28] [%]	cell viability [29] [%]	cell viability [30] [%]	cell viability [31] [%]	cell viability [32] [%]	cell viability [33] [%]
Cc1ccccc1C(OCCN(C)C)c1ccccc1 (stereo unspecified)	102	117	145	138	135	143	142	122	116	125	57.5	121	112	120	120	120	115	125	125	127	117	116	–	–	–	–	–	–	–	–	–	–	–
NC[C@@H]1O[C@H](O[C@H]2[C@@H](O)[C@H](O[C@@H]3[C@@H](O)[C@H](N)C[C@H](N)[C@H]3O[C@H]3O[C@H](CN)[C@@H](O)[C@H](O)[C@H]3N)O[C@@H]2CO)[C@H](N)[C@@H](O)[C@@H]1O.O=S(=O)(O)O.O=S(=O)(O)O.O=S(=O)(O)O	103	82.8	110	113	101	110	110	106	107	88.5	92.9	95.3	105	99.2	107	111	107	96.8	108	87.2	98.5	94.9	92.2	90.5	86.8	96.1	96.5	85.7	92.8	90.1	89.9	79.4	83
c1ccc2c(Cc3c[nH]c4ccccc34)c[nH]c2c1	95	106	108	93.6	112	112	95.5	89.7	87.4	80.4	54	89.8	98.3	87.8	101	97.7	86.8	96.1	89.8	85.2	85.8	78.9	99	92	106	104	93.3	97.7	93.2	94.2	88.5	84	57.1
CCN1C[C@H](C)[N]2C(=C(O)C3=C2\C(=N/N(CC4=CC=C(F)C(=C4)Cl)C3=O)C(=O)NC)C1=O	107	125	118	126	120	131	98.2	92.5	96.5	58	11.9	107	98.3	111	111	104	96	97.7	99.2	96.3	80.3	11.4	106	115	107	121	118	98.4	102	111	92.6	65.6	13.9
CN(C)C1=CC(=CC=C1)C\2=C\3C(=O)N(NC3=C/C(=O)N2C)C4=CC=CC=C4Cl	113	109	127	116	120	105	60.4	7.34	5.72	4.4	5.35	118	105	122	121	116	103	93	19.7	5.29	5.8	5.56	118	108	114	116	143	112	83.4	28.3	10.1	7.91	8.18
O=S(=O)([O-])CCS.[Na+]	100	141	124	131	130	112	123	44.1	38.9	46.4	37.5	–	–	–	–	–	–	–	–	–	–	–	–	–	–	–	–	–	–	–	–	–	–
Cc1cc(OCCC[S+](C)(=O)[O-])cc(C)c1-c1cccc(COc2ccc3c(c2)OC[C@H]3CC(=O)O)c1	93.7	112	98.7	91.3	108	97.8	103	89.9	106	92.8	67.1	96.9	95	99.2	102	92.4	99.2	107	100	98	90.6	57.3	99.2	96.7	95.9	98.4	96.1	92.6	93.7	86.4	85.3	89.3	47.1
O=[N+]([O-])c1ncc[nH]1	90.7	84.4	90.2	78.4	91	97.4	89.7	89.4	80.8	91.7	75.8	86.3	85.5	90.9	84.2	90.9	87.3	84.1	76.9	80.3	85.7	74	88.5	93.7	88.7	87.2	75.8	82.5	78.6	81	83.2	76.1	87.7
